pEC50: −log10 of the molar value.
System: Dkk1-LRP5-TCF-Luciferase
Assay: Functional Dkk1-LRP5-TCF-Luciferase Assay in U2OS Cells
Details: for fold induction at 20 µM / pEC50 / fold induction at 2 µM: Homo sapiens, U2OS; for fold induction at 20 µM: read-out: C = TCF ACTIVITY/DMSO CONTROL Fold induction @ 20.0 uM, 20.0 uM compound; for A = MAX FOLD Induction/DMSO CONTROL: maximum fold induction over DMSO control; for fold induction at 2 µM: read-out: B = TCF ACTIVITY/DMSO CONTROL Fold induction @ 2.0 uM, 2.0 uM compound
Procedure: Biological Evaluation—Functional Dkk1-LRP5-TCF-Luciferase Assay in U2OS Cells
Frozen U2OS-Dkk1-HTS Reporter cells generation: U2OS Human Bone derived cells (Osteosarcoma) are grown in McCoy's 5A Medium (Modified), with L -glutamine (GIBCO Cat No. 16600-082)+1% Pen-Strep+5% FBS) plated at 1×10^7 cells/T175 cm flask. The next day, the cells are co-transfected overnight with the following plasmids: (a) Test reporter (16×TCF-TK-FireFly-Luci), (b) Internal Control Reporter (TK-Renilla-Luci), (c) Wnt3a and (d) Dkk1. GIBCO's Lipofectamine 2000 and OptiMEM are used for the transfection. After a minimum of 4 hr of transfection at 37° C., the plasmid-transfected cells are trypsinized, counted, and suspended in freezing medium (95% FBS+5% DMSO). The reporter cells are frozen at 1×10^7/ml concentrations, aliquoted into 0.5 ml or 2.5 ml/tube and stored at 70° C.
The following day, test compounds are added under HTS setup by Plate Track into 384 well plates (white, TC treated, Falcon plate) such that the final concentration of the compounds in 20 μL/well cell will be 5 μg/ml (final concentration of DMSO=0.25% and final compound concentration=20 μM). Vials of frozen reporter cells are thawed by warming the vial in a 37° C. water bath for 60-120 seconds with some shaking until the cells formed a suspension. The thawed cells are transferred into a cold 50 ml (or larger) tube and mixed well by gentle pipetting. The appropriate amount of cold Phenol Red Free RPMI medium-1640 (GIBCO, Cat #11835-030) with L-glutamine is added, both with ˜5% FBS (GIBCO-BRL, Cat. #16000-044), so that 20 μl of the final cell suspension will contain ˜5,000 cells. The cell dilution is done such that the final concentration of FBS is ˜5%.
Diluted cells (20 μl) are added into each well in a 384 well plate. The plate is incubated at 37° C. under 5% CO2 for ˜20 h. Bright-Glo substrate, 2.5 μl/well is added, and the Fire Fly Luciferase is measured using VLUX (60 second exposure) immediately after the substrate is added. Test compounds are dissolved in DMSO (100%) and added to specified wells. Raw luciferase signal data obtained as relative luminescence units (RLUs) for the test compounds are normalized to the signal of the mean of the sample reporter cell plate with DMSO.

Row | SMILES | fold induction at 20 µM | A = MAX FOLD Induction/DMSO CONTROL [fold] | pEC50 | fold induction at 2 µM
1 | COC(=O)N1CC[C@@H](Nc2nccc(-c3ccc4ccccc4c3)n2)C1 [methyl (3R)-3-{[4-(2-naphthyl)pyrimidin-2-yl]amino}pyrrolidine-1-carboxylate] | 2.35 | 1.360 |  | 
2 | COC(=O)N1CC[C@H](Nc2nccc(-c3ccc4ccccc4c3)n2)C1 [methyl (3S)-3-{[4-(2-naphthyl)pyrimidin-2-yl]amino}pyrrolidine-1-carboxylate] | 2.12 | 2.725 | 5.56 | 1.65
3 | COC(=O)N[C@H]1CC[C@H](Nc2nccc(-c3ccc4ccccc4c3)n2)CC1 [methyl (trans-4-{[4-(2-naphthyl)pyrimidin-2-yl]amino}cyclohexyl)carbamate] | 1.66 | 2.490 | 4.91 | 2.53
4 | COC(=O)NCC1CN(c2nccc(-c3ccc4ccccc4c3)n2)C1 [methyl ({1-[4-(2-naphthyl)pyrimidin-2-yl]azetidin-3-yl}methyl)carbamate] | 1.08 |  |  | 1.28
5 | COC(=O)NCC1CCN(c2nccc(-c3ccc4ccccc4c3)n2)CC1 [methyl ({1-[4-(2-naphthyl)pyrimidin-2-yl]piperidin-4-yl}methyl)carbamate] | 1.59 |  |  | 1.21
6 | COC(=O)NCC1CCN(c2nccc(-c3ccc4ccccc4c3)n2)C1 (centres unmarked) [methyl ({1-[4-(2-naphthyl)pyrimidin-2-yl]pyrrolidin-3-yl}methyl)carbamate] | 1.08 |  |  | 1.04
7 | COC(=O)C(NC(=O)OC(C)(C)C)=C1CCN(c2nccc(-c3ccc4ccccc4c3)n2)CC1 [methyl [(tert-butoxycarbonyl)amino]{1-[4-(2-naphthyl)pyrimidin-2-yl]piperidin-4-ylidene}acetate] | 1.24 |  |  | 1.01
8 | COC(=O)C(NC(=O)OC(C)(C)C)C1CCN(c2nccc(-c3ccc4ccccc4c3)n2)CC1 (centres unmarked) [methyl [(tert-butoxycarbonyl)amino]{1-[4-(2-naphthyl)pyrimidin-2-yl]piperidin-4-yl}acetate] | 0.71 |  |  | 
9 | COC(=O)C(N)C1CCN(c2nccc(-c3ccc4ccccc4c3)n2)CC1 (centres unmarked) [methyl amino{1-[4-(2-naphthyl)pyrimidin-2-yl]piperidin-4-yl}acetate] | 0.03 | 2.360 | 5.48 | 
10 | COC(=O)N(C)CCN(C)[C@@H]1CCN(c2nccc(-c3ccc4ccccc4c3)n2)C1 [methyl methyl[2-(methyl{(3R)-1-[4-(2-naphthyl)pyrimidin-2-yl]pyrrolidin-3-yl}amino)ethyl]carbamate] | 1.2 |  |  | 
11 | COC(=O)N[C@@H]1CCN(c2nccc(-c3ccc4ccccc4c3)n2)C1 [methyl {(3R)-1-[4-(2-naphthyl)pyrimidin-2-yl]pyrrolidin-3-yl}carbamate] | 0.43 | 0.890 |  | 2.2
12 | COC(=O)N[C@H]1CCN(c2nccc(-c3ccc4ccccc4c3)n2)C1 [methyl {(3S)-1-[4-(2-naphthyl)pyrimidin-2-yl]pyrrolidin-3-yl}carbamate] | 1.63 |  |  | 1.03
13 | CC(C)(C)OC(=O)N1CC(CNc2nccc(-c3ccc4ccccc4c3)n2)C1 [tert-butyl 3-({[4-(2-naphthyl)pyrimidin-2-yl]amino}methyl)azetidine-1-carboxylate] | 1.02 |  |  | 1.8
14 | COC(=O)C(Nc1nccc(-c2ccc3ccccc3c2)n1)C1CCN(C(=O)OC(C)(C)C)CC1 (centres unmarked) [tert-butyl 4-(2-methoxy-1-{[4-(2-naphthyl)pyrimidin-2-yl]amino}-2-oxoethyl)piperidine-1-carboxylate] |  |  |  | 1.62
15 | CC(C)(C)OC(=O)N1CCN(C[C@H]2CCN(c3nccc(-c4ccc5ccccc5c4)n3)C2)CC1 [tert-butyl 4-({(3R)-1-[4-(2-naphthyl)pyrimidin-2-yl]pyrrolidin-3-yl}methyl)piperazine-1-carboxylate] |  |  |  | 1.95
